# Measurements published in ChEMBL document CHEMBL4507276 (2021).
# What was measured:
# [1] = target: Serine/threonine-protein kinase MARK1 (Homo sapiens) (UniProt Q9P0L2); settings: Compound concentration 1000.0 nM
# [2] = target: T1, MAP kinase-activated protein kinase 5 (Homo sapiens) (UniProt Q8IW41); experiment: MAPKAPK5 Invitrogen selectivity data (BI); settings: Compound concentration 3.0 uM
# T1 sequence (whole entry): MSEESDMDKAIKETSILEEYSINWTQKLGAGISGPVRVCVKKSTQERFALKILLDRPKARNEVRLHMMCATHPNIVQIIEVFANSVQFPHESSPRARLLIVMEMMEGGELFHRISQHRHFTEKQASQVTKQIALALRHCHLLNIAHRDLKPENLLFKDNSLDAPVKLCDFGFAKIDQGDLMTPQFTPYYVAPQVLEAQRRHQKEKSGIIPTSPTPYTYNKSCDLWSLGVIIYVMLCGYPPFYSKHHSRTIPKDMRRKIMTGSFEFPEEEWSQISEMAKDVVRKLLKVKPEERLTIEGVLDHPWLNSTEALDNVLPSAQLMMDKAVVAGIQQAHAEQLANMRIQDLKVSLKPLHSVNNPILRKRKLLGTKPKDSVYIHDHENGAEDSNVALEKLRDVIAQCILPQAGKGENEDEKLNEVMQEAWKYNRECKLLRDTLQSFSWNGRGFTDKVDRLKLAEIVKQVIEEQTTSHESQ
# [3] = target: Macrophage colony-stimulating factor 1 receptor (Homo sapiens) (UniProt P07333); experiment: CSF1R Invitrogen selectivity data (BI); settings: Compound concentration 3.0 uM
# [4] = target: T2, Ephrin type-B receptor 3 (Homo sapiens) (UniProt P54753); experiment: EPHB3 Invitrogen selectivity data (BI); settings: Compound concentration 3.0 uM
# T2 sequence (whole entry): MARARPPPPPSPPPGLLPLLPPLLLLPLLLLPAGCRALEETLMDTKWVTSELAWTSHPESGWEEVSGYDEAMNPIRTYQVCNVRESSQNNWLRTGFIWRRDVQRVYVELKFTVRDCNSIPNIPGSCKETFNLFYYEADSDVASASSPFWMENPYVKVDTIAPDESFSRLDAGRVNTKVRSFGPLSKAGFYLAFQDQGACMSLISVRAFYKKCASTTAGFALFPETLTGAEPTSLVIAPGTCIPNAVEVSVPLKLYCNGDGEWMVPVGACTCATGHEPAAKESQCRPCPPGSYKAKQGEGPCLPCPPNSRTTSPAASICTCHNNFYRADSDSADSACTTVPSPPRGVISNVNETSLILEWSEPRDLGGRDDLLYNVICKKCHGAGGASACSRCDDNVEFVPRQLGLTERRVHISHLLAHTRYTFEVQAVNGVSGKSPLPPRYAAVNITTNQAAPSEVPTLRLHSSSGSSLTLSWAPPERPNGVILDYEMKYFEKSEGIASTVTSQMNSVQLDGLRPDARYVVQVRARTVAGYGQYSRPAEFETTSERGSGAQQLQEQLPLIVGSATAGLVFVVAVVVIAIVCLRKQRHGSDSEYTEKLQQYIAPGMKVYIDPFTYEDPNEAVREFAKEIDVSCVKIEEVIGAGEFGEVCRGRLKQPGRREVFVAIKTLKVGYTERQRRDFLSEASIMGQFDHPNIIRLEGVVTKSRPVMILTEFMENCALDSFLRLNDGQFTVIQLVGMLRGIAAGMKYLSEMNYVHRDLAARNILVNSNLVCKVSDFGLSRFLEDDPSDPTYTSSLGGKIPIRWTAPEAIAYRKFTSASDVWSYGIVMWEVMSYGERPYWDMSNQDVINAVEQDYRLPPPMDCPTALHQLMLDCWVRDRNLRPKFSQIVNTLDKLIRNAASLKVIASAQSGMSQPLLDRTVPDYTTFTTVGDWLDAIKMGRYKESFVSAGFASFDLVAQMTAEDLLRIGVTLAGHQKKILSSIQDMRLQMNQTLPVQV
# [5] = target: D(3) dopamine receptor (Homo sapiens) (UniProt P35462); experiment: D3/H Cerep selectivity data (BI); settings: Compound concentration 20.0 uM
# [6] = target: 5-hydroxytryptamine receptor 2B (Homo sapiens) (UniProt P41595); experiment: 5HT2B/HU Eurofins-Panlabs selectivity data (BI); settings: Compound concentration 10.0 uM
# [7] = test system: Hepatocyte growth factor receptor (Homo sapiens), P08581 [M1250T]; experiment: MET M1250T Invitrogen selectivity data (BI); settings: Compound concentration 3.0 uM
# [8] = target: T3, 5-hydroxytryptamine receptor 3A (Homo sapiens) (UniProt P46098); experiment: 5HT3/H Cerep selectivity data (BI); settings: Compound concentration 20.0 uM
# T3 sequence (whole entry): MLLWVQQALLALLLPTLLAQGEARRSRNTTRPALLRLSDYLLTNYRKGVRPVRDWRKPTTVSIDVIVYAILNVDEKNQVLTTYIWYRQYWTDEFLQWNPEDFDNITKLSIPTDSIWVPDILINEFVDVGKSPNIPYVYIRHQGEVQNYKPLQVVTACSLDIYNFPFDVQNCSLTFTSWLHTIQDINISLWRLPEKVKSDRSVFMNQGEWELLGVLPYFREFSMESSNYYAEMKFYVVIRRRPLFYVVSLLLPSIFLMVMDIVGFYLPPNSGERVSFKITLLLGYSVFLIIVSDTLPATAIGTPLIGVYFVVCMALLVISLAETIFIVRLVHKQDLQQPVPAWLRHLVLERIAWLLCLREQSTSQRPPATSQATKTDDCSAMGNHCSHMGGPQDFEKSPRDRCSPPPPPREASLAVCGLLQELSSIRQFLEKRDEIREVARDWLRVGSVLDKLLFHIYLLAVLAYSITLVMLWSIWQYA
# hERG (KCNH2) = hERG (KCNH2) (Homo sapiens, UniProt Q12809); experiment: K+/HERG Eurofins-Panlabs selectivity data (BI); settings: compound concentration 10 uM, read-out: % Ctrl
# Chain of hERG (KCNH2) (Q12809 whole entry): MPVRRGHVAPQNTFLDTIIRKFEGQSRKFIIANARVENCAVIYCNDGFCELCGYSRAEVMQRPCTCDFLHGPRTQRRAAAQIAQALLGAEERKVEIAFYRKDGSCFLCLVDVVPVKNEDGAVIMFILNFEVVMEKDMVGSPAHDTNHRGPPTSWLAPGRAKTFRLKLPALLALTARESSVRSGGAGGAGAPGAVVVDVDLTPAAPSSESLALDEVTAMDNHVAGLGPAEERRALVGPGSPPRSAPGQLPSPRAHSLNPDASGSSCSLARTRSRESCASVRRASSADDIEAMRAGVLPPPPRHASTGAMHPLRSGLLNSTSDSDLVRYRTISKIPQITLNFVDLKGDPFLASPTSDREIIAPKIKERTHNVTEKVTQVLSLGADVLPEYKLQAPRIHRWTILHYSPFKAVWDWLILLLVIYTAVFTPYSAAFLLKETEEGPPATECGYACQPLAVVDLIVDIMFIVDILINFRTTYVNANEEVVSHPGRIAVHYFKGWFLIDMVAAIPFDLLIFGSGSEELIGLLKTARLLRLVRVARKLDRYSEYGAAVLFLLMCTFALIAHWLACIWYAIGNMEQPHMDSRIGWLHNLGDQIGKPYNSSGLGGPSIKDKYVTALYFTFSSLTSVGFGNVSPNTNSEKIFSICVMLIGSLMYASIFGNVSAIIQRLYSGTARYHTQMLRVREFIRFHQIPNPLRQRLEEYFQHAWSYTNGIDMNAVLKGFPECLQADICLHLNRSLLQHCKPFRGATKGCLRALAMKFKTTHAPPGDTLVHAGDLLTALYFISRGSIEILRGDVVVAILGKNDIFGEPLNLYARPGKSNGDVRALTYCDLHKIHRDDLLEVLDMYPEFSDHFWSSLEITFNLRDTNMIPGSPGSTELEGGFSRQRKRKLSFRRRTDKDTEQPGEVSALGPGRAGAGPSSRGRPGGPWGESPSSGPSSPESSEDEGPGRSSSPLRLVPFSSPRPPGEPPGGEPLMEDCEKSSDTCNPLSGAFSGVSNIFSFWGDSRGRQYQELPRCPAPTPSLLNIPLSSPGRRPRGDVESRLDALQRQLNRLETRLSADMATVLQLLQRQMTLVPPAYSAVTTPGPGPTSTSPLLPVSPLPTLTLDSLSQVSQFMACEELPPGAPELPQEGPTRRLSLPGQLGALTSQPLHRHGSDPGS
# Chain of Macrophage colony-stimulating factor 1 receptor (Homo sapiens) (P07333 whole entry): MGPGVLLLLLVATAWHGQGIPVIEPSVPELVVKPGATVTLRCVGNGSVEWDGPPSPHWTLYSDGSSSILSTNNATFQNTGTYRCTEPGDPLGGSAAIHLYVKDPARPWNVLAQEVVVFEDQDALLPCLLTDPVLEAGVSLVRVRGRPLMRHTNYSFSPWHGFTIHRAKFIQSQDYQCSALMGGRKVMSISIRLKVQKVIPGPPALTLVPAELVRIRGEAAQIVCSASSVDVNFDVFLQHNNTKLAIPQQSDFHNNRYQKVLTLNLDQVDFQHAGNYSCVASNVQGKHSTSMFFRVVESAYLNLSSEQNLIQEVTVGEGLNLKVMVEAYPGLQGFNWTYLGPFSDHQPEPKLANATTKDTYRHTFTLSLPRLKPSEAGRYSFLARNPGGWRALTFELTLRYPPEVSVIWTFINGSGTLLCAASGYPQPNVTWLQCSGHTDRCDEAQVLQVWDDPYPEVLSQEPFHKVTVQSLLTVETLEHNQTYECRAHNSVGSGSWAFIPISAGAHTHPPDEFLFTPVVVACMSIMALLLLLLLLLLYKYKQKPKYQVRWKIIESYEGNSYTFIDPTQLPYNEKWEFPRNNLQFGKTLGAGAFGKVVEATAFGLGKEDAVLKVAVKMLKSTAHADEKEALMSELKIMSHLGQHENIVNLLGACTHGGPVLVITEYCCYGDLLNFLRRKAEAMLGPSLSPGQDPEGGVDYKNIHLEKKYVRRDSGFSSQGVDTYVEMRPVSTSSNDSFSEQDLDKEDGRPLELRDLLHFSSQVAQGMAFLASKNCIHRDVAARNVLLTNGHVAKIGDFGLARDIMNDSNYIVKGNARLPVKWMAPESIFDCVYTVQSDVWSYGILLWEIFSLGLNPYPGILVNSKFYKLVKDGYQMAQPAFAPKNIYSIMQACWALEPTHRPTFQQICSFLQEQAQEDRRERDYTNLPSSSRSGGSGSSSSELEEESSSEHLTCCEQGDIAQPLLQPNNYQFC
# Chain of Serine/threonine-protein kinase MARK1 (Homo sapiens) (Q9P0L2 whole entry, looked up): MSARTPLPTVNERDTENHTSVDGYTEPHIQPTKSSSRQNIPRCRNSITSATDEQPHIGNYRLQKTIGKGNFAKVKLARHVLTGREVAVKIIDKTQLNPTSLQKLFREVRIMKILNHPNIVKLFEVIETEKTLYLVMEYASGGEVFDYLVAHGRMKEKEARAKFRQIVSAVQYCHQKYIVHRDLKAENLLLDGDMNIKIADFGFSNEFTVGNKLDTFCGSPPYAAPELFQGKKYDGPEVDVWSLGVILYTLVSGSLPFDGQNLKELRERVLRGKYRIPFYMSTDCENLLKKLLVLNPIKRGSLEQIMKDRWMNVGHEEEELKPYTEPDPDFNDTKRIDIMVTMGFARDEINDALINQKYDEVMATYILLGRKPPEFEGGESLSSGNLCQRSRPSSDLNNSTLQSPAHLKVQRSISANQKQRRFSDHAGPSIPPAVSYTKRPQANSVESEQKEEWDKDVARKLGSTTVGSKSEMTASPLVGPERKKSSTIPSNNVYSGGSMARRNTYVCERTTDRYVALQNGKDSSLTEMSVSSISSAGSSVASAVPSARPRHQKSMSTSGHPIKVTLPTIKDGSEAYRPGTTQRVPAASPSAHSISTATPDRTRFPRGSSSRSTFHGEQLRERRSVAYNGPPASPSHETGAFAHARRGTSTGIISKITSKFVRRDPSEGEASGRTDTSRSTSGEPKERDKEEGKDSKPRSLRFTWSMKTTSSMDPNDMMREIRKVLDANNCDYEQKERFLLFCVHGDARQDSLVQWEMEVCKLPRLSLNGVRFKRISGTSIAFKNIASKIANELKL
# Chain of D(3) dopamine receptor (Homo sapiens) (P35462 whole entry): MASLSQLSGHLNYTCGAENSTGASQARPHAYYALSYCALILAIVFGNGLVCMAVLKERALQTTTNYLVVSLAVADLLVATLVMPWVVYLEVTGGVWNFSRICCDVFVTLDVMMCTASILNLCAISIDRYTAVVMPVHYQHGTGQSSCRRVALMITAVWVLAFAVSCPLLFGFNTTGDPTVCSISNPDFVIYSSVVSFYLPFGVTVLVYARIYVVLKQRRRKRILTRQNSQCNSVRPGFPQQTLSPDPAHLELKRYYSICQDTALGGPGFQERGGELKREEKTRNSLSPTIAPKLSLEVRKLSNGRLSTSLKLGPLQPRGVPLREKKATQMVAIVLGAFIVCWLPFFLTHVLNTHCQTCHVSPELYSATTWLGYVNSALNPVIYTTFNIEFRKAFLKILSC
# Chain of 5-hydroxytryptamine receptor 2B (Homo sapiens) (P41595 whole entry): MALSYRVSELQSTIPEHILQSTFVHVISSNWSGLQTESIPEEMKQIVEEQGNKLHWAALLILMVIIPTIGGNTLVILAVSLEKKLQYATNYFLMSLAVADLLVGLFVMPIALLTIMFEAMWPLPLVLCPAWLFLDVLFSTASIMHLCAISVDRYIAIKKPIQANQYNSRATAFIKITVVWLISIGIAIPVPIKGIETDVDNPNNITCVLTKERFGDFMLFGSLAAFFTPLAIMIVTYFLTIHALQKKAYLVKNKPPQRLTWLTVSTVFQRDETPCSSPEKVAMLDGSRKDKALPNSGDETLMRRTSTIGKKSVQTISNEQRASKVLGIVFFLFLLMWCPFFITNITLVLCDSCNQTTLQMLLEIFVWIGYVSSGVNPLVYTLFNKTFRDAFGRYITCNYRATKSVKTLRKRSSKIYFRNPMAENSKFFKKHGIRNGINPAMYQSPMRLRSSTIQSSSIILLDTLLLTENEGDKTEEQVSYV
Structure (SMILES),residual activity [1] [%],residual activity [2] [%],residual activity [3] [%],residual activity [4] [%],residual activity [5] [%],residual activity [6] [%],residual activity [7] [%],residual activity [8] [%],activity at 10 µM (hERG (KCNH2))
CN(C)C(=O)Cn1cc(-c2nc(C3(c4ccc(-c5cnc(N)nc5)cc4)CC3)no2)cn1 [BI 0153],100,–,–,–,–,–,–,–,–
CN(C)C(=O)Cn1cc(-c2nc([C@@](C)(c3ccc(-c4cnc(N)nc4)cc3)C3CC3)no2)cn1 [BI 665915],–,98.5,73,97,100,97,105,100,90% (not active)
